Patent publication US10526327B2, “Histone demethylase inhibitors” (CELGENE QUANTICEL RESEARCH, INC., priority 2013, dated 2020)

Legend:
JMJD2C = biological target: T1, JMJD2C (Homo sapiens, UniProt Q9H3R0); test: JMJD2C in vitro enzyme inhibition assay (TR-FRET); assay type: biochemical
T1 construct: purchased BPS Bioscience 50105
T1 sequence (Q9H3R0 2-372): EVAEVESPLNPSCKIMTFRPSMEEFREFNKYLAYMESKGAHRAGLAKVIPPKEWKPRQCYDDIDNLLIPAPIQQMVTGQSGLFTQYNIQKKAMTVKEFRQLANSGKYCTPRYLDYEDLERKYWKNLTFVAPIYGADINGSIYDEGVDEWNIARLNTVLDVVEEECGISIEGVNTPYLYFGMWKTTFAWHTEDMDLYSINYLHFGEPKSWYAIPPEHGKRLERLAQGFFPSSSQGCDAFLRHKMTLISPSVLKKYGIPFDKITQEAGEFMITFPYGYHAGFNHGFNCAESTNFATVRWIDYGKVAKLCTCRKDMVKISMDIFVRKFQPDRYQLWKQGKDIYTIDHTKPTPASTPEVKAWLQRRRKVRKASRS
From the text: (§1) This assay determines the ability of a test compound to inhibit Jarid1A, Jarid1B, and JMJD2C demethylase activity. Baculovirus expressed Jarid1A (GenBank Accession #NM_001042603, AA1-1090) was purchased from BPS Bioscience (Cat#50110). Baculovirus expressed Jarid1B (GenBank Accession #NM_006618, AA 2-751) was purchased from BPS Bioscience (Cat #50121) or custom made by MolecularThroughput. Baculovirus expressed JMJD2C (GenBank Accession #BC143571, AA 2-372) was purchased from BPS Bioscience (Cat#50105).
The ability of test compounds to inhibit the activity of JMJD2C was determined in 384-well plate format under the following reaction conditions: 0.3 nM JMJD2C, 300 nM H3K9me3-biotin labeled peptide (Anaspec cat #64360), 2 μM alpha-ketoglutaric acid in assay buffer of 50 mM HEPES, pH7.3, 0.005% Brij35, 0.5 mM TCEP, 0.2 mg/ml BSA, 50 μM sodium L-ascorbate, and 2 μM ammonium iron(II) sulfate. Reaction product was determined quantitatively by TR-FRET after the addition of detection reagent Phycolink Streptavidin-allophycocyanin (Prozyme) and Europium-anti-di-methylated histone H3 lysine 9 (H3K9me2) antibody (PerkinElmer) in the presence of 5 mM EDTA in LANCE detection buffer (PerkinElmer) at a final concentration of 50 nM and 1 nM, respectively.
(§2) The assay reaction was initiated by the following: 2 μl of the mixture of 900 nM H3K9me3-biotin labeled peptide and 6 μM alpha-ketoglutaric acid with 2 μl of 11-point serial diluted inhibitor in 3% DMSO were added to each well of the plate, followed by the addition of 2 μl of 0.9 nM JMJD2C to initiate the reaction. The reaction mixture was incubated at room temperature for 30 minutes, and terminated by the addition of 6 μl of 5 mM EDTA in LANCE detection buffer containing 100 nM Phycolink Streptavidin-allophycocyanin and 2 nM Europium-anti-H3K9me2 antibody. Plates were read by EnVisionMultilabel Reader in TR-FRET mode (excitation at 320 nm, emission at 615 nm and 665 nm) after 1 hour incubation at room temperature. A ratio was calculated (665/615) for each well and fitted to determine inhibition constant (IC50).

Jarid1B = biological target: T2, Jarid1B (Homo sapiens, UniProt Q9UGL1); test: Jarid1B in vitro enzyme inhibition assay (TR-FRET); assay type: biochemical
T2 construct: purchased BPS Bioscience or custom made by MolecularThroughput 50121
T2 sequence (Q9UGL1 2-751): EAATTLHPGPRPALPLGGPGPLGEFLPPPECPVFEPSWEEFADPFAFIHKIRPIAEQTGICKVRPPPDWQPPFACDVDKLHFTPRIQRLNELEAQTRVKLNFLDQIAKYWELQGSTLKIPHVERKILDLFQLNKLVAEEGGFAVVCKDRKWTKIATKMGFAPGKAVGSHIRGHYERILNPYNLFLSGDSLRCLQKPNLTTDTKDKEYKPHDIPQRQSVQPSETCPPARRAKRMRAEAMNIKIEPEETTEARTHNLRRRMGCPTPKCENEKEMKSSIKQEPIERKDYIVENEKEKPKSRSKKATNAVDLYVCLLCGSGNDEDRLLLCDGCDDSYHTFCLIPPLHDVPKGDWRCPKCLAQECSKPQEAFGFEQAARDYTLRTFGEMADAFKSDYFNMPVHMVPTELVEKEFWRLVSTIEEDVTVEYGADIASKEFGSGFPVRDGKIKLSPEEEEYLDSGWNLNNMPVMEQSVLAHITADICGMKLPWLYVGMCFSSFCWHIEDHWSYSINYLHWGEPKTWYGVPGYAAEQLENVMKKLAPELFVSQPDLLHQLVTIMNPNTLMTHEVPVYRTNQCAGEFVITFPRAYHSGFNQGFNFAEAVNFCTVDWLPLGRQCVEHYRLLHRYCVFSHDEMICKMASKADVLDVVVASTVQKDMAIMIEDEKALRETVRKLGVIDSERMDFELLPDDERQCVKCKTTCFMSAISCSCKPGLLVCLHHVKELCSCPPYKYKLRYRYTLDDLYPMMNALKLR
From the text: as §1
The ability of test compounds to inhibit the activity of Jarid1B was determined in 384-well plate format under the following reaction conditions: 0.8 nM Jarid1B, 300 nM H3K4me3-biotin labeled peptide (Anaspec cat #64357), 2 μM alpha-ketoglutaric acid in assay buffer of 50 mM HEPES, pH7.3, 0.005% Brij35, 0.5 mM TCEP, 0.2 mg/ml BSA, 50 μM sodium L-ascorbate, and 2 μM ammonium iron(II) sulfate. Reaction product was determined quantitatively by TR-FRET after the addition of detection reagent Phycolink Streptavidin-allophycocyanin (Prozyme) and Europium-anti-mono-or di-methylated histone H3 lysine 4 (H3K4me1-2) antibody (PerkinElmer) in the presence of 5 mM EDTA in LANCE detection buffer (PerkinElmer) at a final concentration of 25 nM and 1 nM, respectively.
as §2, with “nM H3K4me3-biotin” for “nM H3K9me3-biotin”, “DMSO was” for “DMSO were”, “of 2.4” for “of 0.9”, “nM Jarid1B” for “nM JMJD2C”, “containing 50” for “containing 100”, “nM Europium-anti-H3K4me1-2” for “nM Europium-anti-H3K9me2”

Compound	IC50 (JMJD2C) [nM]	IC50 (Jarid1B) [nM]
Cn1cnc(-c2nccc3c(O)nc(Oc4ccc(F)c(F)c4)nc23)c1 [Example 81, 2-(3,4-difluorophenoxy)-8-(1-methylimidazol-4-yl)pyrido[3,4-d]pyrimidin-4-ol]	100 to 1000	≤ 100
COCCOc1ccc(Oc2nc(O)c3ccnc(-c4cn(C)cn4)c3n2)cc1 [Example 82, 2-[4-(2-methoxyethoxy)phenoxy]-8-(1-methylimidazol-4-yl)pyrido[3,4-d]pyrimidin-4-ol]	100 to 1000	≤ 100
Cn1cnc(-c2nccc3c(O)nc(Oc4ccc5cnn(C)c5c4)nc23)c1 [Example 83, 8-(1-methylimidazol-4-yl)-2-(1-methylindazol-6-yl)oxypyrido[3,4-d]pyrimidin-4-ol]	100 to 1000	≤ 100
CCn1ncc2ccc(Oc3nc(O)c4ccnc(-c5cn(C)cn5)c4n3)cc21 [Example 84, 2-(1-ethylindazol-6-yl)oxy-8-(1-methylimidazol-4-yl)pyrido[3,4-d]pyrimidin-4-ol]	100 to 1000	≤ 100
Cc1nn(C)c2cc(Oc3nc(O)c4ccnc(-c5cn(C)cn5)c4n3)ccc12 [Example 85, 2-(1,3-dimethylindazol-6-yl)oxy-8-(1-methylimidazol-4-yl)pyrido[3,4-d]pyrimidin-4-ol]	100 to 1000	≤ 100
Oc1nc(Oc2cnn(Cc3ccc(F)cc3)c2)nc2cnccc12 [Example 86, 2-[1-(4-fluorobenzyl)pyrazol-4-yl]oxypyrido[3,4-d]pyrimidin-4-ol]	≤ 100	≤ 100
Oc1nc(Oc2cnn(Cc3ccccc3F)c2)nc2cnccc12 [Example 87, 2-[1-(2-fluorobenzyl)pyrazol-4-yl]oxypyrido[3,4-d]pyrimidin-4-ol]	≤ 100	≤ 100
CC(C)(C)OC(=O)N1CCC(n2cc(Oc3nc(O)c4ccncc4n3)cn2)CC1 [Example 88, tert-butyl 4-[4-(4-hydroxypyrido[3,4-d]pyrimidin-2-yl)oxypyrazol-1-yl]piperidine-1-carboxylate]	100 to 1000	≤ 100
Oc1nc(Oc2cnn(C3CCNCC3)c2)nc2cnccc12 [Example 89, 2-(1-piperidin-4-ylpyrazol-4-yl)oxypyrido[3,4-d]pyrimidin-4-ol]	≤ 100	≤ 100
CC(=O)N1CCC(n2cc(Oc3nc(O)c4ccncc4n3)cn2)CC1 [Example 90, 1-[4-[4-(4-hydroxypyrido[3,4-d]pyrimidin-2-yl)oxypyrazol-1-yl]piperidin-1-yl]ethanone]	≤ 100	≤ 100

Other lines, results leading:

IC50 (JMJD2C) [nM]	IC50 (Jarid1B) [nM]	Compound
100 to 1000	≤ 100	C=CC(=O)N1CCC(n2cc(Oc3nc(O)c4ccncc4n3)cn2)CC1 [Example 91, 1-[4-[4-(4-hydroxypyrido[3,4-d]pyrimidin-2-yl)oxypyrazol-1-yl]piperidin-1-yl]prop-2-en-1-one]
≤ 100	≤ 100	O=C(C1CC1)N1CCC(n2cc(Oc3nc(O)c4ccncc4n3)cn2)CC1 [Example 92, cyclopropyl-[4-[4-(4-hydroxypyrido[3,4-d]pyrimidin-2-yl)oxypyrazol-1-yl]piperidin-1-yl]methanone]
≤ 100	≤ 100	O=C(c1ccc(F)cc1)N1CCC(n2cc(Oc3nc(O)c4ccncc4n3)cn2)CC1 [Example 93, (4-fluorophenyl)-[4-[4-(4-hydroxypyrido[3,4-d]pyrimidin-2-yl)oxypyrazol-1-yl]piperidin-1-yl]methanone]
≤ 100	≤ 100	O=S(=O)(C1CC1)N1CCC(n2cc(Oc3nc(O)c4ccncc4n3)cn2)CC1 [Example 94, 2-[1-(1-cyclopropylsulfonylpiperidin-4-yl)pyrazol-4-yl]oxypyrido[3,4-d]pyrimidin-4-ol]
≤ 100	≤ 100	O=S(=O)(c1ccccc1)N1CCC(n2cc(Oc3nc(O)c4ccncc4n3)cn2)CC1 [Example 95, 2-[1-[1-(benzenesulfonyl)piperidin-4-yl]pyrazol-4-yl]oxypyrido[3,4-d]pyrimidin-4-ol]
100 to 1000	≤ 100	Oc1nc(Oc2ccnc(N3CCNCC3)c2)nc2cnccc12 [Example 96, 2-(2-piperazin-1-ylpyridin-4-yl)oxypyrido[3,4-d]pyrimidin-4-ol]
100 to 1000	≤ 100	Oc1nc(Oc2ccnc(N3CCOCC3)c2)nc2cnccc12 [Example 97, 2-(2-morpholin-4-ylpyridin-4-yl)oxypyrido[3,4-d]pyrimidin-4-ol]
1000 to 10000	100 to 1000	Cn1cnc(-c2nccc3c(O)nc(OCC(C)(C)O)nc23)c1 [Example 98, 2-(2-hydroxy-2-methylpropoxy)-8-(1-methylimidazol-4-yl)pyrido[3,4-d]pyrimidin-4-ol]
100 to 1000	≤ 100	CC(c1ccccc1)n1cc(Oc2nc(O)c3ccncc3n2)cn1 (centres unmarked) [Example 99]
100 to 1000	≤ 100	Cn1cnc(-c2nccc3c(O)nc(Oc4cnn(C5CCOCC5)c4)nc23)c1 [Example 100, 8-(1-methylimidazol-4-yl)-2-[1-(oxan-4-yl)pyrazol-4-yl]oxypyrido[3,4-d]pyrimidin-4-ol]
100 to 1000	≤ 100	Cn1cnc(-c2nccc3c(O)nc(OCc4ccccc4)nc23)c1 [Example 101, 8-(1-methylimidazol-4-yl)-2-phenylmethoxypyrido[3,4-d]pyrimidin-4-ol]
≤ 100	100 to 1000	Cn1cnc(-c2nccc3c(O)nc(OCC4CCOCC4)nc23)c1 [Example 102, 8-(1-methyl-1H-imidazol-4-yl)-2-(oxan-4-ylmethoxy)pyrido[3,4-d]pyrimidin-4-ol]
